# Data: US7670579B2, “Nanostructured bioactive materials prepared by dual nozzle spray drying techniques” (American Dental Association Foundation, priority 2004, dated 2010)
# Columns and labels:
# [1] = comparison value for crystalline CaF2; cited from earlier work
# [2] = Reaction of CaF2 with macro DCPD in water paste, XRD; type: physicochemical; conditions: paste with water 1g/1 mL, 100% humidity, 37° C., 24 h
# Procedure: In another test, mixtures containing a macro (median size 1.6 μm) DCPD and either the nano CaF2 or a macro CaF2 were mixed with water (1g/1 mL) and the pastes were left in 100% humidity at 37° C. for 24 h.
# [3] = cited from earlier work
# [4] = Solubility of salts in saturated spray drying solutions (Table 2); type: physicochemical
# Description: Other examples of the methods of the invention include formation of nano particles of other components. For example, compositions of solution to be spray dried for preparing nano particles of various calcium phosphate phases are set forth in Table 2. Because MCPM is highly soluble, the solution for the nano MCPM production can be prepared by dissolving an appropriate amount of MCPM or other sources of Ca (for example CaCO3) and P (for example H3PO4) in a solution of the desired concentration (Table 2). For the preparation of nano particles of other calcium phosphates, a volatile weak acid is used to facilitate solubilization of the calcium phosphate ions. […] In general, a minimum amount of the volatile weak acid, necessary to keep the calcium and phosphate ions in the solution, is used to facilitate the removal of the acid in the spray drying process.
# [5] = acetic acid, high: DCPD/DCPA 996, OCP 995, ACP/TCP 985, HA 998 mmol/L
# [6] = acetic acid, low: DCPD/DCPA 0, OCP 0.04, ACP/TCP 0, HA 0.122 mmol/L
# [7] = carbonic acid, high: DCPD/DCPA 1000 mol/L, OCP 1018, ACP/TCP 1152, HA 1004 mmol/L
# [8] = carbonic acid, low: DCPD/DCPA 0, OCP 0.04, ACP/TCP 0, HA 0.164 mmol/L
consumption of CaF2 by reaction with DCPD (XRD) [2],"[Ca] of saturated solution [4, 5] [mmol/L]","[P] of saturated solution [4, 5] [mmol/L]","pH of saturated solution [4, 5]","[Ca] of saturated solution [4, 6] [mmol/L]","[P] of saturated solution [4, 6] [mmol/L]","pH of saturated solution [4, 6]","[Ca] of saturated solution [4, 7] [mmol/L]","[P] of saturated solution [4, 7] [mmol/L]","pH of saturated solution [4, 7]","[Ca] of saturated solution [4, 8] [mmol/L]","[P] of saturated solution [4, 8] [mmol/L]","pH of saturated solution [4, 8]",Compound,Ksp [1],IAP(HA) ([3]; comparison value for crystalline HA),pIAP(HA) ([3]; comparison value for macro scale HA)
no reduction,–,–,–,–,–,–,–,–,–,–,–,–,"[Ca+2].[F-].[F-] [crystalline CaF2, Calcium fluoride]",3.9×10^−11,–,–
–,132,79,3.9,0.1,0.06,6.8,14.2,8.54,4.6,0.1,0.06,6.8,Hydroxyapatite [HA],–,1×10^−117,117
